Assay results from patent US8575197B2, “Pyrolinone derivative and pharmaceutical composition comprising the same” (Shionogi & Co., Ltd., priority 2008, dated 2013).

molecular target: human P2X3 receptor (Homo sapiens (Human), UniProt P56373); assay: P2X3 receptor inhibition, ATP-evoked Fluo-3 calcium fluorescence (FDSS 3000); format: cell-based; settings: C6BU-1 cell transfected with human P2X3 receptor gene; ATP-evoked Fluo-3 fluorescence
Summary of the method: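 C6BU-1 cells stably transfected with human P2X3, loaded with 4 μM Fluo-3-AM for 1 h at 37 °C in HEPES buffer pH 7.5 with probenecid. Compound added 5 min before 40 nM ATP solution; fluorescence followed 3 min. IC50 from ratio of peak post-ATP to baseline fluorescence.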

Chain of human P2X3 receptor (P56373 whole entry): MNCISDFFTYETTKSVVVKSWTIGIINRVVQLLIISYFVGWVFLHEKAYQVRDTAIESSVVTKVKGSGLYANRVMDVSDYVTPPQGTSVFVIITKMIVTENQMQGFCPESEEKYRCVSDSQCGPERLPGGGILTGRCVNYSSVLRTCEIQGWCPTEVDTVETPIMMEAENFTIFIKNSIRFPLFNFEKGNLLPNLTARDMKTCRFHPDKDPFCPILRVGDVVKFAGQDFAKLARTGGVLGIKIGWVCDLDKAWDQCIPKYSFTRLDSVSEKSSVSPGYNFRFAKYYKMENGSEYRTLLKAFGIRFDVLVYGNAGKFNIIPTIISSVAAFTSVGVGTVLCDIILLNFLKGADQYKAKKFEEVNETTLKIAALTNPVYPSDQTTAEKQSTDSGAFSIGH

| IC50 | Compound |
| --- | --- |
| 0.051 µM | CSc1ccc(N2C(=O)C(O)=C(C(=O)C(C)C)C2c2ccccc2OCCCO)cc1 (stereo not shown) [Compound I-476] |
| 0.116 µM | COCc1ccccc1C1C(C(=O)CC2CCCC2)=C(O)C(=O)N1c1ccc(-c2ccsc2)cc1 (stereo not shown) [Compound I-439] |
| 0.033 µM | COc1ccccc1C1c2c(C(C)(C)C)n[nH]c2C(=O)N1c1ccc(-c2ccco2)cn1 (stereo not shown) [II-257] |
| 0.034 µM | COc1ccccc1C1c2c(C(C)(C)C(=O)O)n[nH]c2C(=O)N1c1ccc(-c2cccs2)cc1 (stereo not shown) [II-163] |
| 0.152 µM | COc1ccccc1C1c2c(C(C)C)n[nH]c2C(=O)N1c1ccc(-c2ccsc2)c(C(N)=O)c1 (stereo not shown) [II-242] |
| 0.715 µM | Cc1nc(-c2ccc(N3C(=O)C(O)=C(C(=O)C(C)C)C3c3ccccc3CCC(=O)NC(C)C)cc2)no1 (stereo not shown) [Compound I-594] |
| 0.016 µM | COc1ccccc1C1c2c(C(C)(C)CO)n[nH]c2C(=O)N1c1ccc(-c2cc[nH]c2)cc1 (stereo not shown) [II-232] |
| 0.365 µM | CC(C)(C)C(=O)C1=C(O)C(=O)N(c2ccc(-c3ccon3)cc2)C1c1ccccc1OCC(N)=O (stereo not shown) [Compound I-144] |
| 0.49 µM | Cc1nc(-c2ccc(N3C(=O)C(O)=C(C(=O)CC4CCCC4)C3C3CCCCC3)cc2)no1 (stereo not shown) [Compound I-438] |
| 0.944 µM | COc1ncccc1C1c2c(C(C)(C)C)n[nH]c2C(=O)N1c1ccc(-c2nc(C)no2)cc1 (stereo not shown) [II-195] |
| 0.04 µM | COc1ccccc1[C@@H]1C(C(=O)C(C)C)=C(O)C(=O)N1c1ccc(-c2ccoc2)cc1 [Compound I-202] |
| 0.977 µM | COc1ccccc1C1c2c(C(C)(C)C)n[nH]c2C(=O)N1c1ccc(-c2cc(NC(C)=O)no2)cc1 (stereo not shown) [II-147] |
| 0.062 µM | COc1ncccc1C1c2c(C(C)(C)C)n[nH]c2C(=O)N1c1ccc(SC)cc1 (stereo not shown) [II-007] |
| 0.027 µM | CC(C)C(=O)C1=C(O)C(=O)N(c2ccc(-c3ccsc3)cc2)C1c1ccccc1C#N (stereo not shown) [Compound I-244] |
| 0.246 µM | COCc1ccccc1C1C(C(=O)CC(C)C)=C(O)C(=O)N1c1ccc(SC(F)(F)F)cc1 (stereo not shown) [Compound I-448] |
| 0.181 µM | COCCOc1ccccc1C1C(C(=O)C(C)C)=C(O)C(=O)N1c1ccc(SC)cc1 (stereo not shown) [Compound I-475] |
| 0.032 µM | CC(C)(C)c1n[nH]c2c1C(c1cccc[n+]1[O-])N(c1ccc(-c3ccsc3)cc1)C2=O (stereo not shown) [II-074] |
| 0.087 µM | Cc1nc(-c2ccc(N3C(=O)C(O)=C(C(=O)C4CCCC4)C3c3ccccc3OC(C)C)cc2)no1 (stereo not shown) [Compound I-518] |
| 0.034 µM | CNC(=O)C(C)(C)c1n[nH]c2c1C(c1ccccc1OC)N(c1ccc(-c3ccsc3)cc1)C2=O (stereo not shown) [II-170] |
| 0.347 µM | COc1ccccc1C1C(C(=O)C(C)C)=C(O)C(=O)N1c1ccc2sccc2c1 (stereo not shown) [Compound I-269] |
| 0.247 µM | CC(C)(C)C(=O)C1=C(O)C(=O)N(c2ccc(-c3ccon3)cc2)C1c1cccc[n+]1[O-] (stereo not shown) [Compound I-005] |
| 0.033 µM | COc1ccccc1C1c2c(C(C)(C)C)n[nH]c2C(=O)N1c1ccc(-c2ccoc2)cn1 (stereo not shown) [II-247] |
| 0.03 µM | COCCOc1ccccc1C1C(C(=O)CC(C)C)=C(O)C(=O)N1c1ccc(-c2csc(C)c2)cc1 (stereo not shown) [Compound I-375] |
| 0.086 µM | COc1ncccc1C1C(C(=O)C(C)C)=C(O)C(=O)N1c1ccc(-c2ccsc2)cc1 (stereo not shown) [Compound I-187] |
| 0.036 µM | COc1ccccc1C1C(C(=O)CC(C)C)=C(O)C(=O)N1c1ccc(-c2ccc(C)o2)cc1 (stereo not shown) [Compound I-383] |

| IC50 | Compound |
| --- | --- |
| 0.029 µM | CC(C)CC(=O)C1=C(O)C(=O)N(c2ccc(-c3ccsc3)cc2)C1c1ccccc1OCCO (stereo not shown) [Compound I-250] |
| 0.028 µM | COc1ccccc1C1c2c(C(C)(C)C)n[nH]c2C(=O)N1c1ccc(-c2ccco2)cc1 (stereo not shown) [II-203] |
| 0.93 µM | COCCOc1ncccc1C1C(C(=O)C(C)(C)C)=C(O)C(=O)N1c1ccc(-c2ccon2)cc1 (stereo not shown) [Compound I-139] |
| 0.014 µM | COCCOc1ncccc1C1C(C(=O)C(C)C)=C(O)C(=O)N1c1ccc(-c2ccc(C)s2)cc1 (stereo not shown) [Compound I-267] |
| 0.018 µM | CC(C)CC(=O)C1=C(O)C(=O)N(c2ccc(-c3ccoc3)cc2)C1c1ccccc1OC(C)C (stereo not shown) [Compound I-408] |
| 0.013 µM | COCc1ccccc1C1C(C(=O)C(C)C)=C(O)C(=O)N1c1ccc(-c2cccs2)cc1 (stereo not shown) [Compound I-215] |
| 0.163 µM | CC(C)(C)C(=O)C1=C(O)C(=O)N(c2ccc(-c3ccsc3)cc2)C1c1ccccc1C(=O)O (stereo not shown) [Compound I-184] |
| 0.033 µM | COCc1ccccc1C1C(C(=O)C2CCCC2)=C(O)C(=O)N1c1ccc(-c2ccsc2)cc1 (stereo not shown) [Compound I-516] |
| 0.34 µM | COc1ccc(C(=O)C2=C(O)C(=O)N(c3ccc4[nH]ccc4c3)C2C2CCCCC2)cc1 (stereo not shown) [Compound I-012] |
| 0.727 µM | CNC(=O)COc1ccccc1C1C(C(=O)C(C)(C)C)=C(O)C(=O)N1c1ccc(-c2ccon2)cc1 (stereo not shown) [Compound I-146] |
| 0.282 µM | COc1ncccc1C1C(C(=O)C(C)(C)C)=C(O)C(=O)N1c1ccc(-c2ccoc2)cc1 (stereo not shown) [Compound I-118] |
| 0.231 µM | CC(C)(C)c1n[nH]c2c1C(c1cccnc1OCCO)N(c1ccc(-c3ccon3)cc1)C2=O (stereo not shown) [II-036] |
| 0.04 µM | Cc1ccc(-c2ccc(N3C(=O)C(O)=C(C(=O)CC(C)C)C3c3ccccc3OC(F)(F)F)cc2)o1 (stereo not shown) [Compound I-362] |
| 0.029 µM | CC(C)C(=O)C1=C(O)C(=O)N(c2ccc(-c3cccs3)cc2)C1c1cccnc1OCCO (stereo not shown) [Compound I-229] |
| 0.025 µM | COCc1ccccc1C1C(C(=O)C(C)C)=C(O)C(=O)N1c1ccc(-c2ccc(C)s2)cc1 (stereo not shown) [Compound I-266] |
| 0.006 µM | COCCOc1ncccc1C1c2c(C(C)(C)C)n[nH]c2C(=O)N1c1ccc(-c2ccsc2)cc1 (stereo not shown) [II-032] |
| 0.13 µM | COCOc1ccccc1C1C(C(=O)CC(C)C)=C(O)C(=O)N1c1ccc(-c2noc(C)n2)cc1 (stereo not shown) [Compound I-316] |
| 0.477 µM | COc1ccccc1[C@H]1C(C(=O)CC(C)C)=C(O)C(=O)N1c1ccc(-c2ccsc2)cc1 [Compound I-280] |
| 0.07 µM | COCc1ccccc1C1C(C(=O)C(C)C)=C(O)C(=O)N1c1ccc(C2CCCC2)cc1 (stereo not shown) [Compound I-528] |
| 0.16 µM | COc1ccc(C(=O)C2=C(O)C(=O)N(c3ccc(-c4nccs4)cc3)C2c2ccccc2OC)cc1 (stereo not shown) [Compound I-029] |
| 0.022 µM | CNC(=O)COc1ccccc1C1C(C(=O)C(C)C)=C(O)C(=O)N1c1ccc(-c2ccsc2)cc1 (stereo not shown) [Compound I-188] |
| 0.032 µM | CCOC(=O)c1ccc(N2C(=O)C(O)=C(C(=O)C(C)(C)C)C2c2ccccc2OC)cc1 (stereo not shown) [Compound I-001] |
| 0.395 µM | Cc1cc(-c2ccc(N3C(=O)C(O)=C(C(=O)C(C)C)C3c3ccccc3C(=O)N3CCOCC3)cc2)cs1 (stereo not shown) [Compound I-546] |
| 0.062 µM | COCCOc1ccccc1C1c2c(C(C)(C)C)n[nH]c2C(=O)N1c1ccc(-c2nc(C)no2)cc1 (stereo not shown) [II-024] |
| 0.148 µM | Cc1cc(-c2ccc(N3C(=O)C(O)=C(C(=O)CC(C)C)C3c3ccccc3OC(F)F)cc2)cs1 (stereo not shown) [Compound I-377] |

| IC50 | Compound |
| --- | --- |
| 0.448 µM | COc1ccc(-c2n[nH]c3c2C(C2CCCCC2)N(Cc2cc(C)on2)C3=O)cc1 (stereo not shown) [II-200] |
| 0.218 µM | COCCOc1ncccc1C1C(C(=O)C(C)C)=C(O)C(=O)N1c1ccc(SC)cc1 (stereo not shown) [Compound I-485] |
| 0.018 µM | CC(C)C(=O)C1=C(O)C(=O)N(c2ccc(-c3ccsc3)cc2)C1c1ccccc1OC(F)F (stereo not shown) [Compound I-301] |
| 0.195 µM | COc1ccccc1C1C2C(=O)C(C)(C)COC2(O)C(=O)N1c1ccc(-c2ccsc2)cn1 (stereo not shown) [Compound I-095] |
| 0.472 µM | COCc1ccccc1C1C(C(=O)C(C)C)=C(O)C(=O)N1c1ccc(-c2ccccc2)cc1 (stereo not shown) [Compound I-282] |
| 0.177 µM | Cc1cc(-c2ccc(N3C(=O)C(O)=C(C(=O)C(C)C)C3c3ccccc3C(=O)N(C)C)cc2)cs1 (stereo not shown) [Compound I-409] |
| 0.252 µM | CCN(C)C(=O)c1ncccc1C1C(C(=O)CC(C)C)=C(O)C(=O)N1c1ccc(-c2ccc(C)s2)cc1 (stereo not shown) [Compound I-575] |
| 0.062 µM | Cc1nc(-c2ccc(N3C(=O)C(O)=C(C(=O)C(C)C)C3c3ccccc3COC(C)C)cc2)no1 (stereo not shown) [Compound I-539] |
| 0.031 µM | COCc1ccccc1C1C(C(=O)CC(C)C)=C(O)C(=O)N1c1ccc(-c2ccc(C)s2)cc1 (stereo not shown) [Compound I-303] |
| 0.004 µM | CC(C)(C)c1n[nH]c2c1C(c1ccccc1OCC(=O)O)N(c1ccc(-c3ccsc3)cc1)C2=O (stereo not shown) [II-023] |
| 0.785 µM | Cc1cc(-c2ccc(N3C(=O)C(O)=C(C(=O)C(C)C)C3c3ccccc3N3CCCC3=O)cc2)cs1 (stereo not shown) [Compound I-598] |
| 0.137 µM | CN(C)c1ccccc1C1c2c(C(C)(C)C)n[nH]c2C(=O)N1c1ccc(-c2ccon2)cc1 (stereo not shown) [II-119] |
| 0.378 µM | COc1ccccc1C1c2c(C(C)(C)C)n[nH]c2C(=O)N1c1ccc(SC(F)(F)F)cc1 (stereo not shown) [II-004] |
| 0.006 µM | CC(C)C(=O)C1=C(O)C(=O)N(c2ccc(-c3ccsc3)cc2)C1c1ccccc1OCC(CO)CO (stereo not shown) [Compound I-456] |
| 0.415 µM | COCCOc1ncccc1C1C(C(=O)C(C)(C)C)=C(O)C(=O)N1c1ccc(SC)cc1 (stereo not shown) [Compound I-150] |
| 0.822 µM | COc1ccccc1C1C(C(=O)C(C)C)=C(O)C(=O)N1c1ccc(-c2ccsc2)c(CO)c1 (stereo not shown) [Compound I-241] |
| 0.134 µM | COc1ccc(C(=O)C2=C(O)C(=O)N(c3ccc(-c4cccn4C)cc3)C2C2CCCCC2)cc1 (stereo not shown) [Compound I-014] |
| 0.035 µM | COCOc1ccccc1C1C(C(=O)CC(C)C)=C(O)C(=O)N1c1ccc(-c2csc(C)c2)cc1 (stereo not shown) [Compound I-372] |
| 0.074 µM | COCCOc1ncccc1C1C(C(=O)C(C)(C)C)=C(O)C(=O)N1c1ccc(-c2ccoc2)cc1 (stereo not shown) [Compound I-164] |
| 0.023 µM | COc1ccccc1C1C(C(=O)C(C)(C)C)=C(O)C(=O)N1c1ccc(-c2cccs2)cc1 (stereo not shown) [Compound I-079] |
| 0.027 µM | CCOc1ccccc1C1c2c(C(C)(C)C)n[nH]c2C(=O)N1c1ccc(-c2ccon2)cc1 (stereo not shown) [II-101] |
| 0.023 µM | Cc1cc(-c2ccc(N3C(=O)C(O)=C(C(=O)C(C)C)C3c3ccccc3OCCO)cc2)cs1 (stereo not shown) [Compound I-256] |
| 0.811 µM | CNC(=O)CCc1ccccc1C1C(C(=O)C(C)C)=C(O)C(=O)N1c1ccc(-c2noc(C)n2)cc1 (stereo not shown) [Compound I-593] |
